Data as given in patent US20100227859A1, “TRICYCLIC COMPOUNDS AS MATRIX METALLOPROTEINASE INHIBITORS” (priority 2007, published 2010).

Biological target: purified human MMP-12 enzyme (Homo sapiens, UniProt P39900)
Assay: MMP-12 FRET assay
Type: biochemical
Conditions: substrate 20 μM, room temperature
Method in brief: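 Initial fluorescence rate (325/395 nm) of cleavage of MCA-Pro-Leu-Gly-Leu-Dpa(DNP)-Ala-Arg, 20 μM final, was followed for 30 min at room temperature after a 30 min enzyme–compound preincubation. Buffer: 50 mM HEPES pH 7.4, 100 mM NaCl, 5 mM CaCl2, 0.005% Brij-35, with 10% final DMSO. IC50 came from a Hill-type fit of rate versus inhibitor concentration.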

Sequence of purified human MMP-12 enzyme (P39900 106-470): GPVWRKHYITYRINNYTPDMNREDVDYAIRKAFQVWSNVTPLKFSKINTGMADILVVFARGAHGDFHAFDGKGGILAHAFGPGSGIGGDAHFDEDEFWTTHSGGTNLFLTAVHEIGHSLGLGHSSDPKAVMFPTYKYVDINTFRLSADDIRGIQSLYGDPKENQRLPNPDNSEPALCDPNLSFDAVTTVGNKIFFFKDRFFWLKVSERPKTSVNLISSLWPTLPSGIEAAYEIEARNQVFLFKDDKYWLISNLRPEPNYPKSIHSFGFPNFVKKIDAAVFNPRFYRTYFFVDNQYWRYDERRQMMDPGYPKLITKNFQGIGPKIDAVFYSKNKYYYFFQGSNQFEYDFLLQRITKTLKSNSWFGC

| Structure (SMILES) | IC50 [nM] |
| --- | --- |
| CC(C)[C@@H](NS(=O)(=O)c1ccc2oc3cc(-c4cnn(CCN5CCOCC5)c4)ccc3c2c1)C(=O)O [Compound 172, (R)-3-methyl-2-(7-(1-(2-morpholinoethyl)-1H-pyrazol-4-yl)dibenzo[b,d]furan-2-sulfonamido)butanoic acid] | 19 |
| CC(C)CCn1cc(-c2ccc3sc4cc(S(=O)(=O)N[C@H](C(=O)O)C(C)C)ccc4c3c2)cn1 [Compound 43, (S)-2-(8-(1-isopentyl-1H-pyrazol-4-yl)dibenzo[b,d]thiophene-3-sulfonamido)-3-methylbutanoic acid] | 88 |
| CC(C)[C@H](NS(=O)(=O)c1ccc2c(c1)oc1cc(-c3nc(C(F)(F)F)c(Cl)s3)ccc12)C(=O)O [Compound 233, (S)-2-(7-(5-chloro-4-(trifluoromethyl)thiazol-2-yl)dibenzo[b,d]furan-3-sulfonamido)-3-methylbutanoic acid] | < 1.5 |
| CC(C)[C@H](NS(=O)(=O)c1ccc2c(c1)oc1cc(-c3nnn[nH]3)ccc12)C(=O)O [Compound 250, (S)-2-(7-(1H-tetrazol-5-yl)dibenzo[b,d]furan-3-sulfonamido)-3-methylbutanoic acid] | 239 |
| CC(C)[C@H](NS(=O)(=O)c1ccc2c(c1)oc1cc(-c3nc4ccccc4o3)ccc12)C(=O)O [Compound 227, (S)-2-(7-(benzo[d]oxazol-2-yl)dibenzo[b,d]furan-3-sulfonamido)-3-methylbutanoic acid] | 6.1 |
| CC(C)[C@@H](NS(=O)(=O)c1ccc2oc3cc(-c4nc5c(F)c(F)c(F)cc5s4)ccc3c2c1)C(=O)O [Compound 300, (R)-3-methyl-2-(7-(4,5,6-trifluorobenzo[d]thiazol-2-yl)dibenzo[b,d]furan-2-sulfonamido)butanoic acid] | 51 |
| CC(C)[C@H](NS(=O)(=O)c1ccc2c(c1)oc1cc(-c3ccco3)ccc12)C(=O)O [Compound 78, (S)-2-(7-(furan-2-yl)dibenzo[b,d]furan-3-sulfonamido)-3-methylbutanoic acid] | < 1.5 |
| CC(C)[C@H](NS(=O)(=O)c1ccc2c(c1)oc1ccc(-c3ccc(-c4ccno4)s3)cc12)C(=O)O [Compound 211, (S)-2-(8-(5-(isoxazol-5-yl)thiophen-2-yl)dibenzo[b,d]furan-3-sulfonamido)-3-methylbutanoic acid] | 295 |
| Cc1noc(C)c1-c1ccc2sc3cc(S(=O)(=O)N[C@H](C(=O)O)C(C)C)ccc3c2c1 [Compound 27, (S)-2-(8-(3,5-dimethylisoxazol-4-yl)dibenzo[b,d]thiophene-3-sulfonamido)-3-methylbutanoic acid] | 700 |
| CC(C)[C@H](NS(=O)(=O)c1ccc2c(c1)sc1cc(-c3ccco3)ccc12)C(=O)O [Compound 193, (S)-2-(7-(furan-2-yl)dibenzo[b,d]thiophene-3-sulfonamido)-3-methylbutanoic acid] | < 1.5 |
| CC(C)Cn1cc(-c2ccc3c(c2)oc2ccc(S(=O)(=O)N[C@@H](C(=O)O)C(C)C)cc23)cn1 [Compound 173, (R)-2-(7-(1-isobutyl-1H-pyrazol-4-yl)dibenzo[b,d]furan-2-sulfonamido)-3-methylbutanoic acid] | 80 |
| CC(C)[C@H](NS(=O)(=O)c1ccc2c(c1)oc1ccc(-c3nc(-c4ccc(F)cc4)cs3)cc12)C(=O)O [Compound 284, (S)-2-(8-(4-(4-fluorophenyl)thiazol-2-yl)dibenzo[b,d]furan-3-sulfonamido)-3-methylbutanoic acid] | 18 |
| Cc1nc(-c2cnc(-c3ccc4c(c3)oc3cc(S(=O)(=O)N[C@H](C(=O)O)C(C)C)ccc34)s2)no1 [Compound 228, (S)-3-methyl-2-(7-(5-(5-methyl-1,2,4-oxadiazol-3-yl)thiazol-2-yl)dibenzo[b,d]furan-3-sulfonamido)butanoic acid] | < 1.5 |
| CCc1ccc(-c2cc(-c3ccc4c(c3)oc3cc(S(=O)(=O)N[C@H](C(=O)O)C(C)C)ccc34)sc2CC)s1 [Compound 166, (S)-2-(7-(2′,5-diethyl-2,3′-bithiophen-5′-yl)dibenzo[b,d]furan-3-sulfonamido)-3-methylbutanoic acid] | 93 |
| CC(C)[C@H](NS(=O)(=O)c1ccc2c(c1)oc1ccc(C(=N)NCc3ccccc3)cc12)C(=O)O [Compound 88, (S)-2-(8-(N-benzylcarbamimidoyl)dibenzo[b,d]furan-3-sulfonamido)-3-methylbutanoic acid] | 47 |
| CC(C)[C@H](NS(=O)(=O)c1ccc2c(c1)oc1cc(-c3ccc(C(C)(C)C)o3)ccc12)C(=O)O [Compound 231, (S)-2-(7-(5-tert-butylfuran-2-yl)dibenzo[b,d]furan-3-sulfonamido)-3-methylbutanoic acid] | 3.4 |
| CC(C)[C@H](NS(=O)(=O)c1ccc2c(c1)oc1ccc(-c3sccc3CN(C)C)cc12)C(=O)O [Compound 49, (S)-2-(8-(3-((dimethylamino)methyl)thiophen-2-yl)dibenzo[b,d]furan-3-sulfonamido)-3-methylbutanoic acid] | 228 |
| CC(C)[C@H](NS(=O)(=O)c1ccc2c(c1)oc1ccc(-c3cncnc3)cc12)C(=O)O [Compound 152, (S)-3-methyl-2-(8-(pyrimidin-5-yl)dibenzo[b,d]furan-3-sulfonamido)butanoic acid] | < 1.5 |
| CC(C)[C@@H](NS(=O)(=O)c1ccc2oc3cc(-c4noc(-c5ccccc5)n4)ccc3c2c1)C(=O)O [Compound 150, (R)-3-methyl-2-(7-(5-phenyl-1,2,4-oxadiazol-3-yl)dibenzo[b,d]furan-2-sulfonamido)butanoic acid] | 5 |

Other lines, results leading:

| IC50 [nM] | Structure (SMILES) |
| --- | --- |
| < 1.5 | CC(C)Cc1ncc(-c2ccc3oc4cc(S(=O)(=O)N[C@H](C(=O)O)C(C)C)ccc4c3c2)s1 [Compound 248, (S)-2-(8-(2-isobutylthiazol-5-yl)dibenzo[b,d]furan-3-sulfonamido)-3-methylbutanoic acid] |
| 60 | CC(C)(C)c1nc(-c2ccc3c(c2)oc2ccc(S(=O)(=O)NCC(=O)O)cc23)no1 [Compound 274, 2-(7-(5-tert-butyl-1,2,4-oxadiazol-3-yl)dibenzo[b,d]furan-2-sulfonamido)acetic acid] |
| < 1.5 | CC(C)[C@H](NS(=O)(=O)c1ccc2c(c1)oc1ccc(-c3nc4ccccc4s3)cc12)C(=O)O [Compound 151, (S)-2-(8-(benzo[d]thiazol-2-yl)dibenzo[b,d]furan-3-sulfonamido)-3-methylbutanoic acid] |
| 21 | CC(C)(C)c1nc(-c2ccc3oc4cc(S(=O)(=O)N[C@@H](C(=O)O)c5ccccc5)ccc4c3c2)no1 [Compound 255, (R)-2-(8-(5-tert-butyl-1,2,4-oxadiazol-3-yl)dibenzo[b,d]furan-3-sulfonamido)-2-phenylacetic acid] |
| 7.2 | CC(C)[C@@H](NS(=O)(=O)c1ccc2oc3cc(-c4noc(C5CCCCC5)n4)ccc3c2c1)C(=O)O [Compound 192, (R)-2-(7-(5-cyclohexyl-1,2,4-oxadiazol-3-yl)dibenzo[b,d]furan-2-sulfonamido)-3-methylbutanoic acid] |
| < 1.5 | CC(C)[C@H](NS(=O)(=O)c1ccc2c(c1)oc1cc(-c3sc(Cl)cc3Cl)ccc12)C(=O)O [Compound 85, (S)-2-(7-(3,5-dichlorothiophen-2-yl)dibenzo[b,d]furan-3-sulfonamido)-3-methylbutanoic acid] |
| 4.6 | COCC#Cc1ccc2c(c1)sc1cc(S(=O)(=O)N[C@H](C(=O)O)C(C)C)ccc12 [Compound 65, (S)-2-(7-(3-methoxyprop-1-ynyl)dibenzo[b,d]thiophene-3-sulfonamido)-3-methylbutanoic acid] |
| < 1.5 | Cc1ccc(-c2ccc3c(c2)oc2cc(S(=O)(=O)N[C@H](C(=O)O)C(C)C)ccc23)o1 [Compound 135, (S)-3-methyl-2-(7-(5-methylfuran-2-yl)dibenzo[b,d]furan-3-sulfonamido)butanoic acid] |
| 12 | Cc1cscc1-c1ccc2c(c1)oc1ccc(S(=O)(=O)N[C@@H](C(=O)O)C(C)C)cc12 [Compound 99, (R)-3-methyl-2-(7-(4-methylthiophen-3-yl)dibenzo[b,d]furan-2-sulfonamido)butanoic acid] |
| < 1.5 | CC(C)[C@H](NS(=O)(=O)c1ccc2c(c1)oc1cc(-c3cccs3)ccc12)C(=O)O [Compound 81, (S)-3-methyl-2-(7-(thiophen-2-yl)dibenzo[b,d]furan-3-sulfonamido)butanoic acid] |
| 2.5 | CC(C)[C@H](NS(=O)(=O)c1ccc2c(c1)oc1ccc(-c3oc(Cl)cc3Cl)cc12)C(=O)O [Compound 134, (S)-2-(8-(3,5-dichlorofuran-2-yl)dibenzo[b,d]furan-3-sulfonamido)-3-methylbutanoic acid] |
| 40 | CCCN(Cc1cnc(-c2ccc3oc4cc(S(=O)(=O)N[C@H](C(=O)O)C(C)C)ccc4c3c2)s1)CC1CC1 [Compound 213, (S)-2-(8-(5-(((cyclopropylmethyl)(propyl)amino)methyl)thiazol-2-yl)dibenzo[b,d]furan-3-sulfonamido)-3-methylbutanoic acid] |
| < 1.5 | CC(C)[C@H](NS(=O)(=O)c1ccc2c(c1)oc1ccc(-c3nc(Br)cs3)cc12)C(=O)O [Compound 217, (S)-2-(8-(4-bromothiazol-2-yl)dibenzo[b,d]furan-3-sulfonamido)-3-methylbutanoic acid] |
| < 1.5 | CCCc1ccc(-c2ccc3c(c2)oc2cc(S(=O)(=O)N[C@H](C(=O)O)C(C)C)ccc23)s1 [Compound 232, (S)-3-methyl-2-(7-(5-propylthiophen-2-yl)dibenzo[b,d]furan-3-sulfonamido)butanoic acid] |
| 11 | Cc1nc(CC(C)C)sc1-c1ccc2c(c1)oc1cc(S(=O)(=O)N[C@H](C(=O)O)C(C)C)ccc12 [Compound 235, (S)-2-(7-(2-isobutyl-4-methylthiazol-5-yl)dibenzo[b,d]furan-3-sulfonamido)-3-methylbutanoic acid] |
